Results published in a melting point compilation (Tetko et al.; mined from patent text by program, amines drawn as free bases though some values may be those of a salt).

Structure (SMILES) | melting point [°C]
CC1(C)C(=O)Nc2cc3[nH]c(N)nc3cc21 | 300 to 305
CCN(CC)c1nc(C)cc(O)n1 | 131 to 132
CC(=O)Cc1ccc(CC2SC(=O)NC2=O)cc1 (stereo unspecified) | 133 to 135
CC(C)C(=O)N[C@@H](CS)C(=O)NCCSC(=O)C(C)C | 125 to 127
CCC(CC)OC(=O)N1CCC(c2nc3cc(-c4ccc(-n5cnnn5)cc4F)ccc3o2)CC1 | 114 to 117
CN(C)C(=O)c1cc(N(C)C)cc(C(=O)N(C)C)n1 | 175 to 178
CCC(C)C(CO)NC(=O)CC(O)C(CC(C)C)NC(=O)C(Cc1cscn1)NC(=O)C(Cc1cccc2ccccc12)NC(=O)OCc1ccccc1 (mixture of isomers) | 167 to 169
Cc1oc2c(C=O)cccc2c1C | 56 to 58
COc1cc(O)c(C=O)cc1C(C)(C)C | 75 to 78
COc1cnc(Cl)nc1NS(=O)(=O)c1cccc(Cl)c1Cl | 244 to 245
CCc1cc(C(C)=O)c(O)cc1OCCCCCn1cncn1 | 87
Nc1noc(C23CCCN(C2)C3)n1 | 167 to 170
CC1c2c(Cl)cccc2N=C2NC(=O)CN21 (stereo unspecified) | 252
O=C(CCCCCNC(=O)OCc1ccccc1)NCCCCCO | 92.5 to 94
CCCc1c(OCCCCC(=O)c2ccc3cc(OC)c(OC)cc3c2)ccc(C(=O)O)c1O | 177 to 178
CC(=O)N1c2ccccc2-n2cnc(-c3nc(C4CC4)no3)c2C1(C)C | 169 to 171
O=c1c(Br)c(Br)cnn1-c1cccc(C(F)(F)F)c1 | 158 to 175
CCOC(=O)C1=C(COCc2cc(=O)[nH]c(N)n2)NC(C)=C(C(=O)OC)C1c1cccc(Cl)c1Cl (stereo unspecified) | 222 to 225
COc1ccc(NC(=O)N(O)C2CCCCCCC2)cc1 | 166 to 167
CCCCCCCCCCNC(=O)c1ccc(N(CC(=O)O)CC(=O)O)cc1 | 155 to 157
CC(C#N)CC(=O)c1cccc(Cl)c1 (stereo unspecified) | 72 to 75

Structure (SMILES) | melting point [°C]
COc1cc2c(c3c1OC(C)(C)C3)C(c1ccn(-c3cc(C(N)=O)ccn3)c(=O)c1)=NC(C)(C)C2 | 174 to 175
Cc1ccc2cccc(OCc3c(Cl)ccc(N(C)C(=O)CNC(=O)C=Cc4ccc(-c5nnn[nH]5)cc4)c3Cl)c2n1 | 196 to 208
CON=C(C)c1cccc(NC(=O)NCC(=O)N(C)c2ccc(Cl)c(COc3cccc4ccc(C)nc34)c2Cl)c1 | 218 to 224
Cc1c(NC(=O)CC(C)(C)C)c(C)c2c(c1-c1ccc(F)nc1)OCC2c1ccc(C(C)C)cc1 (stereo unspecified) | 135 to 137
COC(=O)c1c(C)[nH]c(-c2ncccn2)c1C(=O)OC | 140 to 146
CCOc1cc2c(cc1OCC)C(C(C#N)SCCO)=NCC2 (stereo unspecified) | 94 to 96
CC(C)=CCCC(C)=CCOc1ccc(C(=O)NCCNc2cccnc2)cc1 | 88.5 to 89.2
Cc1ccc(S(=O)(=O)O[C@@H]2C[C@@H](CCl)N(S(=O)(=O)c3ccc(C)cc3)C2)cc1 | 145 to 146
CN(C)C1(c2cccc(F)c2)CC=C(c2[nH]c3ccccc3c2CCc2ccncc2)CC1 (stereo unspecified) | 194 to 198
C#Cc1ccc(NC(=O)CCCC(=O)O)cc1 | 135 to 140
CC(c1ccc(N2CCCC2)cc1)c1ccc(N2CCCC2)cc1 | 112
COC(=O)C(CCC(C)(C)Cl)N(C)S(=O)(=O)NC(=O)OCc1ccccc1 (stereo unspecified) | 77 to 78
N#CCCNC(=O)c1cc(F)cc(-c2cccc3cc(Cc4ccc(F)c(Cl)c4)sc23)c1 | 127 to 128
CC(C)N1C(=O)C(NC(=O)Cc2cc(Cl)cc(Cl)c2)C(=O)N(CC(F)(F)F)c2ccccc21 (stereo unspecified) | 185 to 186
O=Cc1ccc2c(c1)CC[C@H](Cc1ccc(O)cc1)O2 | 134 to 135
COC(=O)c1cncc(OC)n1 | 73
O=C(CC1CCN(CCc2ccccc2)CC1)c1ccc(F)cc1 | 73 to 74
CCC(C)(C)N1CCN(C(=O)Nc2ccc3[nH]c(C(=O)N4CCN(c5ncccc5NC(C)C)CC4)cc3c2)CC1 | 240 to 242
COC(=O)c1ccccc1/C=C/CO | 75 to 80
Nc1sc2c(c1C(=O)c1ccc(Br)s1)CCC2 | 154 to 156
COC1CN(C)S(=O)(=O)c2sccc21 (stereo unspecified) | 61 to 63

Structure (SMILES) | melting point [°C]
CC1=C(C(=O)OC(C)(C)C)C(c2ccc(F)c(Br)c2)C(C(=O)OC(C)(C)C)=C(C)N1 | 171 to 172
CCS(=O)(=O)N1CCSc2ccccc2C1 | 78 to 80
Brc1ccc(N2CCNCC2)nc1 | 70.6
CN(C)C1(c2ccccc2)CCC(c2cc3ccccc3n2S(=O)(=O)c2ccccc2)CC1 (stereo unspecified) | 139 to 142
CSc1c(NCc2ccncc2)cnn(C(C)(C)C)c1=O | 107 to 110
CC(=O)c1cc(CNS(C)(=O)=O)ccc1O | 85 to 86.5
O=C1c2cc(O)ccc2OC12CC2 | 180 to 185
CC1(CO)Cc2nnc(-c3ccc(-c4ccc(F)cc4)cc3C(F)(F)F)n2CCS1 (stereo unspecified) | 202 to 204
CS(=O)(=O)C1Cc2cc(Cl)ccc2C1O (stereo unspecified) | 163
CCCCCCCc1ccc(C(=O)CCCC(=O)O)cc1 | 101
Cn1c([N+](=O)[O-])cnc1C(C)(C)O | 102 to 107
CCC1(CCCCCl)C(=O)Nc2cc(F)c(Cl)cc21 (stereo unspecified) | 131 to 133
CCCOC(=O)c1cn(C2CC2)c2nc(N3CCC(N)C3)c(F)cc2c1=O (stereo unspecified) | 125 to 126
CN1Cc2c(C(=O)NN)ncn2-c2ccc(F)cc2C1=O | 288 to 290
CCn1cc(C(=O)O)c(=O)c2ccc(N3CCNCC3)cc21 | 272 to 275
CCCC(C)(Oc1ccccc1C)C(=O)OC1CC(O)C=C2C=CC(C)C(CCC3CC(O)CC(=O)O3)C21 (mixture of isomers) | 161 to 163
CNCc1ccc2cc(O)ccc2c1 | 168 to 169
CC(=O)Nc1nsnc1-c1c(Cl)cccc1Cl | 180 to 185
O=C(Nc1ncco1)c1c(C(F)(F)F)nc2c(C(F)(F)F)cccc2c1O | 258
CCOC(=O)CCN(CC(N)=O)C(=O)Cn1cc(C)c(=O)[nH]c1=O | 207 to 208

Results, then the compound that gave them:

melting point [°C] | Structure (SMILES)
147 to 148 | Cn1nnnc1CC(c1ccccc1)c1ccccc1
154 to 156 | O=C(O)CNS(=O)(=O)c1ccc(N2CCC(c3ccccc3)CC2)cc1
68 to 70 | CCOCC(=O)NC1CCN(C[C@@]23C[C@@H](c4ccccc42)c2ccc(Cl)cc23)CC1
155 to 159 | COC(=O)c1cccc(NC(=O)C=C(c2ccc(Cl)cc2)c2ccc(Cl)cc2)c1
99 to 101 | CC(=O)CCc1ccc2c(c1)Cc1ccccc1-2
177 to 179 | CNC(=O)C(Cc1ccc2ccccc2c1)NC(=O)OC(C)(C)C (stereo unspecified)
147 to 149 | COC(=O)c1cc2c3ccccc3n(-c3ccccc3)c2s1
161 to 162 | COc1cc(COc2nn(-c3ccccc3)cc2C=O)ccc1OCc1nc(-c2cccc(C#N)c2)oc1C
197 to 199 | O=C(Cc1c(Br)cnc2c(NC(=O)c3c(Cl)cccc3Cl)cccc12)NCc1ccccn1
108 to 110 | COC(=O)C1(CC#N)C(=O)N(Cc2ccc(Br)cc2F)C(=O)c2ccccc21 (stereo unspecified)
153 to 154 | NC(=O)c1nc2ccccc2cc1OCCCN1CCN(c2cccc3sccc23)CC1
97 to 99 | O=C(CS(=O)(=O)c1ccccc1)NC1CCN(Cc2ccc(Cl)c(Cl)c2)CC1
61 to 75 | O=CNCc1ccccc1C(F)(F)C(F)(F)c1ccccc1
89 to 91 | Nc1onc(C(F)(F)F)c1-c1ccccc1
126 to 127 | OCCCOc1cccc2cccnc12
131 to 134 | Cc1ccc(-n2cccc2-c2ccc(S(N)(=O)=O)cc2)cc1
214 to 216 | CC(C)c1nc(COC(N)=O)n(Cc2cnc3ccccc3c2)c1Sc1cc(Cl)cc(Cl)c1
108 to 109 | Cn1cccc1-c1nc(-c2cccnc2)no1
129 to 130 | COC(=O)c1ccc2c(ccn2Cc2cccc([N+](=O)[O-])c2)c1
226 to 227 | O=C1CN(C(=O)c2ccccc2)c2cc(F)ccc2N1

melting point [°C] | Structure (SMILES)
168 to 170 | CC(C)(OCc1nn(Cc2ccccc2)c2ccc(Br)cc12)C(=O)O
143 to 144 | OCc1nccn1CCCc1ccc(OCc2coc(/C=C/c3ccccc3)n2)cc1
185 to 187 | CCOC(=O)c1c(CN2C(=O)CN(C)C2=O)nc2sc3c(c2c1-c1ccc(OC)c(OC)c1)CCN(C(=O)c1ccccc1)C3
172 to 175 | CC(C)=NNc1cc2c(nn1)CCN(C(=O)CC(c1ccccc1)c1ccccc1)C2
155 to 158 | CNc1ccc2c(c1)nc(CCc1ccc(C#N)cc1)n2C
174 to 178 | Nc1nc(=O)n(S(=O)(=O)c2ccc(Cl)cc2)cc1F
178 to 180 | O=C1c2ccccc2C(=O)N1OS(=O)(=O)c1ccc(Cl)cc1
238 to 244 | CC1COc2c(N3CCNC(c4ccccc4)C3)c(F)cc3c(=O)c(C(=O)O)cn1c23 (stereo unspecified)
129 to 130 | c1cnc(N2CCN(Cc3n[nH]c4ccccc34)CC2)nc1
111 to 112 | CCN(CC)C(=O)c1nc2cnn(CC)c2nc1-c1ccccc1
298 | O=C(Nc1cccc(C(=O)Nc2ccccc2)c1)Nc1nnc(-c2cc(Cl)cc(Cl)c2O)s1
160 to 163 | O=[N+]([O-])c1cnc2ccc(S)cc2c1-c1ccccc1
211 | O=C(N[C@H]1CC[C@H](CCN2CCC(c3cccc4c3CCO4)CC2)CC1)c1ccnc2ccccc12
118 to 120 | CC(C)c1c(C=C(Br)Br)c(-c2ccc(F)cc2)n2ccccc12
108 to 109 | CC(C)c1ccc2nc3ccc(C(=O)OCCCc4cccnc4)cn3c(=O)c2c1
97 to 98 | COc1cc(OC)cc(N2CCN(C(=O)Nc3cc(-c4ccccn4)nc4ccccc34)CC2)c1
95.5 to 96 | O=c1n(CCC#Cc2ccccn2)nc2ccccn12
130 | CN(C)CCCn1c(-c2ccccc2)cc2cc(O)ccc21
228 to 231 | CC(=O)Oc1ccc(-c2cnc(NC(=O)Cc3ccccc3)c(Cc3ccccc3)n2)cc1
